What all share (assay): NCI tumour cell line growth inhibition, 48 h
For experiment [1], the system named is NCI-H460 lung.
In experiment [2] the test system is ACHN renal.
For experiment [3], the system named is SF-295 CNS.
In experiment [4] the test system is IGROV1 ovarian.
The test system of experiment [5] is KM12 colon.
Experiment [6] concerns SNB-78 CNS.
Experiment [7] concerns SF-539 CNS.
For experiment [8], the system named is HCC-2998 colon.
Experiment [9] has as its system K-562 leukemia.
Experiment [10] deals with DMS 273 small cell lung.

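Five compound concentrations were applied to cells in 96-well plates for 48 hours; endpoints were derived by simple linear interpolation of the resulting dose-response curve. Abbreviation: GI50, concentration required for 50% inhibition of growth. TGI denotes the concentration required for complete inhibition of growth.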 Where only a bound is given, the exact number is not on record here.

For the molecule `CO[C@@]12CC(=O)/C(=C(O)\C=C\c3ccccc3)C(=O)[C@]1(OC)Cc1ccccc1O2`, the TGI is 88.1 µM in [1]; 74.2 µM in experiment [2]; over 100 µM in experiment [3]; over 100 µM in experiment [4]; 46.6 µM in experiment [5]; over 100 µM in experiment [6]. For the same molecule, the TGI is 55.4 µM in experiment [7], 47 µM in experiment [8] and over 100 µM in experiment [9].
As for `C=C=[CH][Sn]([c]1ccccc1)([c]1ccccc1)[c]1ccccc1`, the GI50 in experiment [1] is 1440 nM; in experiment [2] it was 1660 nM; in experiment [3], 1960 nM; in experiment [4] it was 1630 nM; in experiment [5], 1490 nM; in [6] it was 3.1 µM. Further, the GI50 in experiment [7] was 2080 nM; in experiment [8], 1760 nM; in [9], 722 nM. Also, the TGI in experiment [1] turned out to be 3.02 µM; in [2], 3.16 µM; in experiment [3], 3.89 µM; in experiment [4], 4.47 µM; in experiment [5], 2.95 µM; in [6], 9.29 µM. Also, the TGI in experiment [7] came to 4.34 µM; in experiment [8], 3.36 µM; in experiment [9] it was 3.3 µM.
For the molecule `CCN(CC)c1ccc2nc3c4ccccc4c(=NC(=O)c4ccccc4-c4c5ccc(N(CC)CC)cc5[o+]c5cc(N(CC)CC)ccc45)cc-3oc2c1`, the GI50 was 2290 nM in experiment [1]; 3970 nM in experiment [2]; 2960 nM in [3]; 2410 nM in [4]; 2250 nM in [5]; 3240 nM in [7]. Besides, the GI50 in experiment [8] is 1620 nM. The TGI came out at 10.1 µM in [1]; 13.7 µM in [2]; 14.2 µM in experiment [3]; 7.49 µM in experiment [4]; 7.94 µM in experiment [5]; 8.73 µM in experiment [7]. The TGI was 3.82 µM in [8] and over 100 µM in experiment [9].
As for `CSc1ccc(C2=NN(C(=O)c3ccc(N)cc3)C(c3ccc(F)cc3)C2)cc1` (configuration not stated), the GI50 in experiment [1] was 7830 nM; in experiment [2], 7350 nM; in experiment [3], 13200 nM; in [4], 4370 nM; in [5], 2030 nM; in experiment [7], 15600 nM. Further, the GI50 in experiment [8] was 8790 nM; in experiment [9], 3690 nM. Also, the TGI in experiment [1] is 35.2 µM; in [2] it was 19.7 µM; in [3], 27.9 µM; in experiment [4] it was 25.5 µM; in [5], 4.55 µM; in [7], 32.4 µM. The results for the TGI in experiment [8] and in [9] were 21.8 µM and 11.2 µM, respectively.
As for `Nn1c(N=Nc2c(O)[nH]c3ccccc23)n[nH]c1=S`, the TGI in experiment [1], in [2], in experiment [3], in experiment [4], in [5] and in experiment [6] was over 100 µM each time. The TGI in [7], in experiment [8] and in experiment [9] was over 100 µM each time.
For the molecule `Cc1cc2c(C(C)C)c(O)c(O)c(C=O)c2c(O)c1-c1c(C)cc2c(C(C)C)c(O)c(O)c(C=O)c2c1O` (tested in a mixture with another compound), the GI50 is 484 nM in [1]; 545 nM in [2]; 325 nM in experiment [3]; 979 nM in [4]; 394 nM in experiment [5]; 1330 nM in [7]. For the same molecule, the GI50 is 484 nM in experiment [8] and 425 nM in experiment [9]. The TGI is 1.87 µM in experiment [1]; 2.21 µM in [2]; 1.71 µM in experiment [3]; 12.7 µM in experiment [4]; 1.51 µM in [5]; 4.42 µM in experiment [7]. For the same molecule, the TGI amounted to 1.76 µM in [8] and 20.7 µM in experiment [9].
On to `N#CC12Cc3ccc4c(c3-c3cccc(c31)CCN2C(=O)c1ccccc1)OCO4` (configuration not stated), for which the TGI in experiment [2], in experiment [3], in experiment [4], in experiment [5], in experiment [10] and in experiment [6] was over 100 µM throughout. The TGI in [7], in [8] and in [9] was over 100 µM each time.
Take `C[C@]12CCCC(=O)C1C[C@H](C(=O)O)CC2` (some centres not stated): the TGI in experiment [1], in experiment [2], in experiment [3], in [4], in [5] and in experiment [10] was over 100 µM in each case. Besides, the TGI in experiment [7], in experiment [8] and in [9] was over 100 µM throughout.
For the molecule `ClC1=C(Cl)C(Cl)=C(Cl)C1=Cc1ccc(Cl)cc1`, the GI50 in [1] is 726 nM; in [2], 327 nM; in [3], 2270 nM; in [4], 396 nM; in experiment [5] it was 844 nM; in experiment [7] it was 733 nM. Further, the GI50 is 1140 nM in [8] and 388 nM in [9]. Moreover, the TGI in [1] is 2.18 µM; in experiment [2], 1.07 µM; in experiment [3] it was 8.85 µM; in [4] it was 2.11 µM; in [5], 2.38 µM; in [7], 2.18 µM. Besides, the TGI is 2.54 µM in experiment [8] and 4.1 µM in experiment [9].
Take `NNC(=S)N/N=C/C(Cl)=C(\Cl)C(=O)O`: the TGI in experiment [1], in [2], in experiment [3], in experiment [4], in experiment [10] and in experiment [6] was over 100 µM throughout. Moreover, the TGI in experiment [7], in experiment [8] and in experiment [9] was over 100 µM in each case.
Take `O=C(/C=C/c1cccc(B(O)O)c1)c1cccc(B(O)O)c1`: the GI50 in experiment [1] is 1990 nM; in [2] it was 2140 nM; in experiment [3], 3900 nM; in experiment [4], 2520 nM; in experiment [5], 1370 nM; in experiment [7] it was 1840 nM. Besides, the GI50 was 1800 nM in experiment [8] and 2130 nM in experiment [9]. For the same molecule, the TGI in [1] turned out to be 4.53 µM; in [2] it was 4.33 µM; in experiment [3], 15.6 µM; in experiment [4] it was 6.65 µM; in experiment [5] it was 2.79 µM; in [7], 3.73 µM. The TGI in experiment [8] worked out at 3.2 µM; in experiment [9], 9 µM.

Values taken from PubChem BioAssay (NCI).
